Measured values from patent US11660293B2, “Substituted 2-azabicyclo[3.1.1]heptane and 2-azabicyclo[3.2.1]octane derivatives as orexin receptor antagonists” (Chronos Therapeutics Limited, priority 2017, dated 2023).

What was measured:
[1] = target: human Orexin type 1 receptors (Homo sapiens (Human), UniProt O43613); assay: Scintillation Proximity Assay (SPA) binding assay, [3H]SB-674042 displacement, CHO-hOX1 membranes
[2] = target: human Orexin type 2 receptors (Homo sapiens (Human), UniProt O43614); assay: Scintillation Proximity Assay (SPA) binding assay, [3H]EMPA displacement, HEK-hOX2 membranes
Chain of human Orexin type 2 receptors (O43614 whole entry): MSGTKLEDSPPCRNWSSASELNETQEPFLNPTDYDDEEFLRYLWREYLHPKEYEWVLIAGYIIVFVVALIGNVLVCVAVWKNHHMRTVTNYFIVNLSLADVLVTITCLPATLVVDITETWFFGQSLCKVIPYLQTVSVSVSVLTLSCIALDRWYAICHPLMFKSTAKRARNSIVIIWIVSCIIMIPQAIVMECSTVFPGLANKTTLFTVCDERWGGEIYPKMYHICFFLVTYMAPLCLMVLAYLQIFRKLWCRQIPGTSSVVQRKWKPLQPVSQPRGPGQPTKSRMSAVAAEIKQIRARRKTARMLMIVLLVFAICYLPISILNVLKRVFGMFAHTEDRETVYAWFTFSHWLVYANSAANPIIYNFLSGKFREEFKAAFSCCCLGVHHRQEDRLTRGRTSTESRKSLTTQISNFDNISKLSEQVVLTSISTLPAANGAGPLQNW

Chain of human Orexin type 1 receptors (O43613 whole entry): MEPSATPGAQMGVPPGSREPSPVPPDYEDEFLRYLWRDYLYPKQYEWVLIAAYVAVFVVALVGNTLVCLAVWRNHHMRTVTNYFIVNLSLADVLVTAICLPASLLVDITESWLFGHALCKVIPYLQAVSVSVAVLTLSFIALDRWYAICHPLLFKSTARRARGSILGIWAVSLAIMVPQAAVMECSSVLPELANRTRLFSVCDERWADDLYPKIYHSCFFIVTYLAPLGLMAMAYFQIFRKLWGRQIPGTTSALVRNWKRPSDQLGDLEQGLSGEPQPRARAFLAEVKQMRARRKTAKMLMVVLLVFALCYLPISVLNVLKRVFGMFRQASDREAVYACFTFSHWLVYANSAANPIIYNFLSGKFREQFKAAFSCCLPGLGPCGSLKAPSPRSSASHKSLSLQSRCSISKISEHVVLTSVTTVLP

Row | SMILES | OX1 pKi (SPA binding) ([1]; Table 2, [3H]SB-674042 2 nM) | OX2 pKi (SPA binding) ([2]; Table 2, [3H]EMPA 2 nM) | OX1 pKi (SPA binding) ([1]; Table 1, [3H]SB-674042 2 nM) | OX2 pKi (SPA binding) ([2]; Table 1, [3H]EMPA 2 nM)
1 | C[C@@H]1C2CC(C2)N(C(=O)c2cc(F)ccc2-n2nccn2)C1CNc1cnc2cc(F)ccc2n1 (stereo in doubt) [Example 224, cis-6-fluoro-N-({2-[5-fluoro-2-(2H-1,2,3-triazol-2-yl)benzoyl]-4-methyl-2-azabicyclo[3.1.1]heptan-3-yl}methyl)quinoxalin-2-amine] | 8.04 | 6.19 | – | –
2 | Cc1ccc(-n2nccn2)c(C(=O)N2C3CC(C3)[C@@H](C)C2CNc2nc3ccccc3o2)n1 (stereo in doubt) [Example 225, cis-N-({4-methyl-2-[6-methyl-3-(2H-1,2,3-triazol-2-yl)pyridine-2-carbonyl]-2-azabicyclo[3.1.1]heptan-3-yl}methyl)-1,3-benzoxazol-2-amine] | 8.32 | 5.22 | – | –
3 | Cc1nc(C(=O)N2C(COc3cc4ccccc4cn3)CC3CC2C3)c(-c2ccccc2)s1 (stereo not shown) [Example 38] | – | – | 7.61 | 6.9
4 | Cc1ccc(-n2nccn2)c(C(=O)N2C(COc3ccc(F)cc3)CC3CC2C3)n1 (stereo not shown) [Example 39] | – | – | 7.64 | 6.19
5 | Cc1nc(C(=O)N2C(COc3ccc(F)cc3)CC3CC2C3)c(-c2ccccc2F)s1 (stereo not shown) [Example 40] | – | – | 7.33 | 6.19
6 | Cc1nc(C(=O)N2C(COc3cccc(F)c3)CC3CC2C3)c(-c2ccccc2)s1 (stereo not shown) [Example 44] | – | – | 7.15 | 6.38
7 | Cc1nc(C(=O)N2C(COc3ccccc3F)CC3CC2C3)c(-c2ccccc2)s1 (stereo not shown) [Example 45] | – | – | 7.22 | 7.12
8 | Cc1nc(C(=O)N2C(COc3ccc(Br)cc3)CC3CC2C3)c(-c2ccccc2)s1 (stereo not shown) [Example 46] | – | – | 7.62 | 6.51
9 | Cc1nc(C(=O)N2C(COc3ccc(F)c(F)c3)CC3CC2C3)c(-c2ccccc2)s1 (stereo not shown) [Example 47] | – | – | 7.61 | 6.91
10 | Cc1ccc(OCC2CC3CC(C3)N2C(=O)c2nc(C)sc2-c2ccccc2)cc1 (stereo not shown) [Example 48] | – | – | 7.45 | 6.53
11 | Cc1nc(C(=O)N2C(COc3ccc(Cl)cc3)CC3CC2C3)c(-c2ccccc2)s1 (stereo not shown) [Example 49] | – | – | 7.88 | 6.81
12 | Cc1nc(C(=O)N2C(COc3ccc(F)cc3)CC3CC2C3)c(-c2ccc(F)cc2)s1 (stereo not shown) [Example 50] | – | – | 7.66 | 6.52
13 | COc1nc(C(=O)N2C(COc3ccc(F)cc3)CC3CC2C3)c(-c2ccccc2)s1 (stereo not shown) [Example 52] | – | – | 7.71 | 6.79
14 | O=C(c1nc(C2CC2)sc1-c1ccccc1)N1C(COc2ccc(F)cc2)CC2CC1C2 (stereo not shown) [Example 53] | – | – | 7.58 | 7.13
15 | Cc1nc(C(=O)N2C(COc3nc4ccc(F)cc4s3)CC3CC2C3)c(-c2ccccc2)s1 (stereo not shown) [Example 54] | – | – | 7.77 | 7.03
16 | Cc1nc(C(=O)N2C(COc3ccc(C(F)(F)F)cn3)CC3CC2C3)c(-c2ccccc2)s1 (stereo not shown) [Example 55] | – | – | 7.38 | 6.49
17 | Cc1nc(C(=O)N2C(COc3ccc4ccccc4n3)CC3CC2C3)c(-c2ccccc2)s1 (stereo not shown) [Example 56] | – | – | 7.98 | 7.12
18 | Cc1nc(C(=O)N2C(COc3ncc4ccn(C)c4n3)CC3CC2C3)c(-c2ccccc2)s1 (stereo not shown) [Example 57] | – | – | 7.35 | 6.86
19 | Cc1nc(C(=O)N2C(COc3cnc4ccccc4n3)CC3CC2C3)c(-c2ccccc2)s1 (stereo not shown) [Example 58] | – | – | 7.4 | 6.76
20 | Cc1nc(C(=O)N2C(CNc3cc4ccccc4cn3)CC3CC2C3)c(-c2ccccc2)s1 (stereo not shown) [Example 59, N-[[2-(2-methyl-5-phenyl-1,3-thiazole-4-carbonyl)-2-azabicyclo[3.1.1]heptan-3-yl]methyl}isoquinolin-3-amine] | – | – | 8.1 | 7.46
21 | Cc1nc(C(=O)N2C(CNc3ccc4ccccc4n3)CC3CC2C3)c(-c2ccccc2)s1 (stereo not shown) [Example 60, N-{[2-(2-methyl-5-phenyl-1,3-thiazole-4-carbonyl)-2-azabicyclo[3.1.1]heptan-3-yl]methyl}quinolin-2-amine] | – | – | 8.27 | 7.39
22 | Cc1nc(C(=O)N2C(CNc3nc4ccc(F)cc4s3)CC3CC2C3)c(-c2ccccc2)s1 (stereo not shown) [Example 61, 6-fluoro-N-{[2-(2-methyl-5-phenyl-1,3-thiazole-4-carbonyl)-2-azabicyclo[3.1.1]heptan-3-yl]methyl}-1,3-benzothiazol-2-amine] | – | – | 9.12 | 8.03
23 | Cc1nc(C(=O)N2C3CC(C3)[C@@H](C)C2COc2ccc(F)cc2)c(-c2ncccn2)s1 (stereo partly drawn) [Example 94, cis-3-[(4-fluorophenoxy)methyl]-4-methyl-2-[2-methyl-5-(pyrimidin-2-yl)-1,3-thiazole-4-carbonyl]-2-azabicyclo[3.1.1]heptane] | – | – | 8.04 | 6.35
24 | Cc1ccc(-n2nccn2)c(C(=O)N2C3CC(C3)[C@@H](C)C2COc2ccc(F)cc2)n1 (stereo partly drawn) [Example 95, cis-3-[(4-fluorophenoxy)methyl]-4-methyl-2-[6-methyl-3-(2H-1,2,3-triazol-2-yl)pyridine-2-carbonyl]-2-azabicyclo[3.1.1]heptane] | – | – | 8.09 | 6.6
25 | Cc1ccc(-n2nccn2)c(C(=O)N2C3CC(C3)[C@@H](C)C2COc2ccc(F)cc2)c1 (stereo partly drawn) [Example 97, cis-3-[(4-fluorophenoxy)methyl]-4-methyl-2-[5-methyl-2-(2H-1,2,3-triazol-2-yl)benzoyl]-2-azabicyclo[3.1.1]heptane] | – | – | 7.74 | 6.51
26 | Cc1ccc(-n2nccn2)c(C(=O)N2C3CC(C3)[C@@H](C)C2COc2ccc(Cl)cn2)n1 (stereo partly drawn) [Example 99, cis-3-{[(5-chloropyridin-2-yl)oxy]methyl}-4-methyl-2-[6-methyl-3-(2H-1,2,3-triazol-2-yl)pyridine-2-carbonyl]-2-azabicyclo[3.1.1]heptane] | – | – | 7.37 | 6.18
27 | Cc1ccc(-n2nccn2)c(C(=O)N2C3CC(C3)[C@H](C)C2COc2ccc(Cl)cn2)n1 (stereo partly drawn) [Example 102, trans-3-{[(5-chloropyridin-2-yl)oxy]methyl}-4-methyl-2-[6-methyl-3-(2H-1,2,3-triazol-2-yl)pryidine-2-carbonyl]-2-azabicyclo[3.1.1]heptane] | – | – | 7.23 | 5.71
28 | Cc1ccc(-n2nccn2)c(C(=O)N2C3CC(C3)[C@H](C)C2COc2ccc(F)cc2)n1 (stereo partly drawn) [Example 103, trans-3-[(4-fluorophenoxy)methyl]-4-methyl-2-[6-methyl-3-(2H-1,2,3-triazol-2-yl)pyridine-2-carbonyl]-2-azabicyclo[3.1.1]heptane] | – | – | 8 | 5.6
29 | Cc1ccc(-n2nccn2)c(C(=O)N2C3CC(C3)[C@H](C)C2COc2ccc(F)cc2)c1 (stereo partly drawn) [Example 109, trans-3-[(4-fluorophenoxy)methyl]-4-methyl-2-[5-methyl-2-(2H-1,2,3-triazol-2-yl)benzoyl]-2-azabicyclo[3.1.1]heptane] | – | – | 7.51 | 5.89
